Marks after values point to notes of the source that are not given here.
How the values were obtained:
Format in all cases: in vivo
Conditions in all cases: 100 = 100% disease control
[1] = system: Phakopsora pachyrhizi (the causal agent of Asian soybean rust); assay: Test A: preventive spray on soybean seedlings, visual disease rating (100 = 100% control; * 50 ppm, ** 10 ppm, *** 250 ppm)
Procedure, shortened: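 Preventive test: one day after spraying compound (acetone/water suspension, 250 ppm PEG400), seedlings received rust spore inoculum, 24 h in saturated air then 8 days in growth chamber, both at 22 °C. Disease control scored visually, 100 = complete, 0 = none, relative to untreated controls.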

[2] = system: Puccinia recondita f. sp. tritici (the causal agent of wheat leaf rust); assay: Test B: preventive spray on wheat seedlings, disease rating (100 = 100% control; * 50 ppm, ** 10 ppm, *** 250 ppm)
Procedure, shortened: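 Preventive test: Puccinia recondita f. sp. tritici spores were inoculated one day after run-off spraying of wheat seedlings with test suspension (acetone/water 50/50, 250 ppm PEG400). After 24 h in saturated air and 6 days in a growth chamber, both at 20° C, control was scored 0–100 versus untreated plants.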

[3] = system: Uncinula necator (the causal agent of grape powdery mildew); assay: Test C: preventive spray on grape seedlings, disease rating (100 = 100% control; * 50 ppm, ** 10 ppm, *** 250 ppm)
Excerpt: General protocol for preparing test suspensions for Tests A-E: the test compounds were first dissolved in acetone in an amount equal to 3% of the final volume and then suspended at the desired concentration (in ppm) in acetone and purified water (50/50 mix by volume) containing 250 ppm of the surfactant […] (polyhydric alcohol esters). The resulting test suspensions were then used in Tests A-E.
The test solution was sprayed to the point of run-off on grape seedlings. The following day the seedlings were inoculated with a spore suspension of Uncinula necator (the causal agent of grape powdery mildew) and incubated in a growth chamber at 20° C. for 12 days, after which time disease ratings were made.
Results for Tests A-E are given in Table A. In the Table, a rating of 100 indicates 100% disease control and a rating of 0 indicates no disease control (relative to the controls). An asterisk “*” or a double asterisk “**” or a triple asterisk “***” next to the rating value indicates a 50 ppm, 10 ppm and 250 ppm test suspension was used, respectively. A dash (-) indicates the compound was not tested.

[4] = system: Zymoseptoria tritici (the causal agent of wheat leaf blotch); assay: Test D: preventive spray on wheat seedlings, disease rating (100 = 100% control; * 50 ppm, ** 10 ppm, *** 250 ppm)
Procedure, shortened: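 Compounds first dissolved in acetone (3% of final volume), then suspended in 50/50 acetone/water with 250 ppm PEG400 and sprayed to run-off on wheat seedlings; Z. tritici spores inoculated next day. Incubated saturated at 24° C. 48 h, then 20° C. 17 days; disease control rated 0–100 versus controls.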

[5] = system: Blumeria graminis f. sp. tritici (the causal agent of wheat powdery mildew); assay: Test E: preventive spray on wheat seedlings, visual disease rating (100 = 100% control; * 50 ppm, ** 10 ppm, *** 250 ppm)
Procedure, shortened: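 Test suspension (3% acetone, acetone/water 50/50, 250 ppm PEG400) sprayed to run-off on wheat seedlings; inoculated next day with powdery mildew spore dust and kept 8 days at 20 °C. Visual rating, 100 = full and 0 = no control relative to untreated.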

[6] = 10 ppm test suspension, 0 = no control
[7] = 250 ppm test suspension, 0 = no control
[8] = 50 ppm test suspension, 0 = no control
[9] = 10 ppm test suspension, soybean seedlings
[10] = 10 ppm test suspension, wheat seedlings
[11] = 250 ppm test suspension, grape seedlings
[12] = 250 ppm test suspension, wheat seedlings
[13] = 50 ppm test suspension, soybean seedlings
[14] = 50 ppm test suspension, wheat seedlings
[15] = 50 ppm test suspension, grape seedlings

Row | Compound | Test C disease control rating [3, 7] | Test D disease control rating [4, 7] | Test E disease control rating [5, 7] | Test A disease control rating [1, 8] | Test C disease control rating [3, 11] | Test D disease control rating [4, 12] | Test E disease control rating [5, 12] | further results
1 | CCO/C(=C\Oc1ccc(Cn2cc(C(=O)NC3CC3)cn2)cc1)C(F)(F)F [compound 413] | 61*** % | 90*** % | 35*** % |  |  |  |  | Test A disease control rating [1, 6]: 0%; Test B disease control rating [2, 6]: 0%
2 | CCO/C(=C\Oc1cccc(Cn2cc(C(=O)NC)cn2)c1)C(F)(F)F [compound 403] | 74*** % | 17*** % | 0*** % | 54% |  |  |  | 
3 | CCO/C(=C\Oc1ccc(Cn2cc(C(=O)OCC3CC3)cn2)cc1)C(F)(F)F [compound 220] |  |  |  |  | 85*** % | 28*** % | 92*** % | Test A disease control rating [1, 9]: 100%; Test B disease control rating [2, 10]: 0%
4 | CCO/C(=C\Oc1ccc(Cn2cc(C(=O)OCCC#N)cn2)cc1)C(F)(F)F [compound 245] |  |  |  |  | 24*** % | 18*** % | 76*** % | Test A disease control rating [1, 9]: 100%; Test B disease control rating [2, 10]: 0%
5 | CCOC(=O)c1cnn(-c2ccc(O/C=C(\OCC)C(F)(F)F)cc2)c1 [compound 316] |  |  |  | 100% |  |  |  | Test B disease control rating [2, 8]: 9%; Test C disease control rating [3, 8]: 100%; Test D disease control rating [4, 8]: 2%; Test E disease control rating [5, 8]: 73%
6 | CCOC(=COc1ccc(C2CN(S(=O)(=O)CC)C2)cc1)C(F)(F)F [compound 383] | 74*** % | 0*** % | 0*** % | 0% |  |  |  | Test B disease control rating [2, 8]: 0%
7 | CCOC(=O)c1cnn(Cc2ccc(C(O)CC(O)(O)C(F)(F)F)cc2)c1 (stereo not drawn) [compound 51] |  |  |  |  | 81*** % | 3*** % | 0*** % | Test A disease control rating [1, 9]: 0%; Test B disease control rating [2, 10]: 0%
8 | CCO/C(=C\Oc1cccc(Cn2cc(C(=O)NCc3ncccn3)cn2)c1)C(F)(F)F [compound 402] | 48*** % | 5*** % | 0*** % | 97% |  |  |  | 
9 | O=C(NCC(F)(F)F)c1csc(Cc2ccc(OCC3(C(F)(F)F)OCCO3)cc2)n1 [compound 70] |  |  |  |  | 86% | 91% | 83% | Test A disease control rating ([1]; 250 ppm test suspension, soybean seedlings): 100%; Test B disease control rating [2, 12]: 100%
10 | OC(O)(COc1ccc(Cn2cc(Br)cn2)cc1)C(F)(F)F [compound 322] | 48*** % | 100*** % | 97*** % |  |  |  |  | Test A disease control rating [1, 6]: 99%; Test B disease control rating [2, 6]: 86%
11 | CCOC(=O)c1cnn(Cc2ccc(O/C=C(\OCC)C(F)(F)F)cc2F)c1 [compound 375] | 66*** % | 95*** % | 99*** % | 100% |  |  |  | Test B disease control rating [2, 8]: 0%
12 | CCO/C(=C\Oc1ccc(Cn2cc(Br)cn2)cc1)C(F)(F)F [compound 183] |  |  |  |  | 70*** % | 66*** % | 0*** % | Test A disease control rating [1, 9]: 0%; Test B disease control rating [2, 10]: 0%
13 | O=C(NCC1CC1)c1cnc(Cc2ccc(OCC(O)(O)C(F)(F)F)cc2)s1 [compound 256] |  |  |  |  | 15*** % | 95*** % | 82*** % | Test A disease control rating [1, 9]: 73%; Test B disease control rating [2, 10]: 0%
14 | CCO/C(=C\Oc1ccc(Cc2ncc(C(=O)NCC3CC3)s2)cc1)C(F)(F)F [compound 254] |  |  |  |  | 10*** % | 67*** % | 56*** % | Test A disease control rating [1, 9]: 73%; Test B disease control rating [2, 10]: 0%
15 | CCO/C(=C\Oc1ccc(Cn2cc(C(=O)NCc3ncccn3)cn2)cc1)C(F)(F)F [compound 435] | 45*** % | 5*** % | 81*** % | 96% |  |  |  | Test B disease control rating [2, 8]: 0%
16 | CCO/C(=C\Oc1ccc(Cc2ncc(C(=O)NCC(F)F)s2)cc1)C(F)(F)F [compound 276] |  | 53*** % | 86*** % |  |  |  |  | Test A disease control rating [1, 6]: 13%; Test B disease control rating [2, 6]: 0%; Test C disease control rating [3, 8]: 100* %
17 | CC(=O)c1ccc(OCC(O)(O)C(F)(F)F)cc1 [compound 80] |  |  |  |  |  | 96*** % | 99*** % | Test A disease control rating [1, 13]: 99%; Test B disease control rating [2, 14]: 100%; Test C disease control rating [3, 15]: 0%
18 | CCOC(=O)c1cnn(Cc2ccc(OCC(O)(O)C(F)(F)F)cc2F)c1 [Compound 376] |  | 98*** % | 99*** % | 100% |  |  |  | Test B disease control rating [2, 8]: 92%; Test C disease control rating [3, 8]: 36%
19 | CCO/C(=C\Oc1ccc(Cc2ncc(C(=O)NCC3CC3)o2)cc1)C(F)(F)F [compound 258] | 64*** % | 13*** % | 53*** % |  |  |  |  | Test A disease control rating [1, 6]: 96%; Test B disease control rating [2, 6]: 0%
20 | CCOC(=O)c1cnnn1Cc1ccc(O/C=C(\OCC)C(F)(F)F)cc1 [compound 120] |  |  |  |  |  |  |  | Test A disease control rating [1, 13]: 100%; Test B disease control rating [2, 14]: 0%; Test C disease control rating [3, 15]: 23%; Test D disease control rating [4, 14]: 17%; Test E disease control rating [5, 14]: 98%
21 | CCO/C(=C\Oc1ccc(Cn2cc(C(=O)OCCCCl)cn2)cc1)C(F)(F)F [Compound 221, 3-chloropropyl 1-[[4-[[(1Z)-2-ethoxy-3,3,3-trifluoro-1-propen-1-yl]oxy]phenyl]methyl]-1H-pyrazole-4-carboxylate] |  |  |  |  |  |  |  | pest or weed control at 10 ppm ([2]; Puccinia recondita, 10 ppm test suspension, wheat seedlings): 0%; pest or weed control at 250 ppm ([3]; Erysiphe necator, 250 ppm test suspension, grape seedlings): 41%; pest or weed control at 250 ppm ([4]; Zymoseptoria tritici, 250 ppm test suspension, wheat seedlings): 10%; pest or weed control at 250 ppm ([5]; Blumeria graminis, 250 ppm test suspension, wheat seedlings): 95%

Source: patent US20240122180A1, “FUNGICIDAL HALOMETHYL KETONES AND HYDRATES AND THEIR MIXTURES” (FMC Corporation, priority 2020, published 2024)
